Test results reported in US20110118462A1, “N-HETEROCYCLIC SUBSTITUENT-CONTAINING ANTIBIOTIC, PREPARATION AND USE THEREOF” (priority 2009, published 2011).

Assays:
[1] = Muscle stimulation test on rabbits; parameters: species or system New Zealand rabbits; conditions: rabbit, in vivo
Source text: The inventors have conducted the muscle stimulation test of Compounds Ia and II on rabbits. The test is as follows. Eight New Zealand rabbits were divided into three groups. Two groups, containing three rabbits per group, were administrated with Compound Ia and Compound II, respectively. The third group, containing two rabbits, was used as a negative control group. The rabbits were intramuscularly injected with high concentrations of the compounds into the left quadriceps and with low concentration into the right quadriceps. The negative control group was injected with an equal concentration of sodium chloride into the quadriceps of both sides. Each quadriceps was administrated with 1.0 mL once a day for three consecutive days. One or two rabbits from each group were anatomized after 48 hours of the injection. The remaining rabbits were anatomized after the end of the two-week recovery period.

[2] = assay type: in vivo; conditions: for t1/2β: single intravenous administration (Ia 50 mg/kg·bw)
Description: The inventors conducted preliminary pharmacokinetic study of Compound Ia on Beagle dogs. The Beagle dogs were allowed to drink water freely but not to eat food for 16 hours before and 4 hours after the intravenous injection of 50 mg/kg·bw of the compound. Intravenous blood sampling took place at 0, 0.083, 0.17, 0.25, 0.5, 1, 1.5, 2, 3, 4, 6, 9, 12 hours, respectively, after the injection, each blood sample being 3 mL. Thereafter the dogs were given the drugs every other week and blood samples were taken according to the above manner. The blood samples were added to the centrifuge tubes containing heparin and thoroughly mixed by centrifuging at 4000 rpm for 10 minutes. The blood plasma was separated and an abstraction agent (methanol/ethyl acetate 3:2 V/V) was added to and mixed with it by centrifuging at 10000 rpm for 10 minutes. The top, clear liquid, 20 μL, was taken and analyzed by HPLC.

[3] = system: Haemophilus Influenzae; test: Vitro bacteriostasis experiment, two-fold agar dilution method; assay type: cell-based
Description: (§1) Vitro bacteriostasis experiments of Compounds Ia, Ib, and Ic were performed using the two-fold agar dilution method.

[4] = system: Moraxella Catarrhalis; test: as above; assay type: cell-based
Description: as §1

[5] = system: Type B Chain Coccus; test: as above; assay type: cell-based
Description: as §1

[6] = system: Type A Chain Coccus; test: as above; assay type: cell-based
Description: as §1

[7] = system: Pneumonia Chain Coccus; test: as above; assay type: cell-based
Description: as §1

[8] = system: Shigella; test: as above; assay type: cell-based
Description: as §1

[9] = system: Excrement Enterococcus; test: as above; assay type: cell-based
Description: as §1

[10] = system: Moraxella Catarrhalis; test: In-vivo antibacterial activity (protection of rats)
[11] = Solubility; assay type: physicochemical
Source text: Its chemical name is 7-(α-((N,N-diisopropylamidino)thio)acetylamino)-3-(((1,2,5,6-tetrahydro-2-methyl-5,6-dioxo-1,2,4-triazin-3-yl)thio)methyl) cephalosporanic acid mono sodium salt (Compound Ia).

[12] = system: Excrement Enterococcus; test: In-vivo antibacterial activity (protection of rats)
[13] = Stability in aqueous injection solutions at 37° C.; assay type: physicochemical
Source text: (§2) Compared to Compound II, Compound I has better stability in aqueous solution (see Table 2) and in the solid state (See Table 3). Thus Compound I can be stored without freezing or special treatment.

[14] = pH value of aqueous solution; assay type: physicochemical; conditions: for pH: concentration 0.1 g/mL
Description: The pH value of its saturated aqueous solution is 3.2.
At 5° C., sodium carbonate (0.1 g) was dissolved in deionized water (5 mL) in a three-neck flask. Compound II (1 g) was added to the flask with agitation (350 rpm) and the reaction was carried out for 45 minutes. The reaction mixture was discolored with activated carbon and then filtered. The filtration liquid was dropwise added to 80 mL of acetone to precipitate. The precipitation was monitored by an on-line particle analyzing instrument. The mixture was filtered and the solid was washed twice with acetone. Drying under vacuum at 40° C. for 24 hours gave 0.75 g of Compound Ia with a purity of 98.35% (HPLC) and pH 7.3 (concentration 0.1 g/mL).

[15] = system: Pneumonia Chain Coccus; test: In-vivo antibacterial activity (protection of rats)
[16] = Stability in the solid state, storage at various temperatures; assay type: physicochemical
Source text: as §2

[17] = Acute toxicity tests on rats; assay type: in vivo; conditions: intravenous injection
[18] = healthy Beagle dogs, single intravenous administration 50 mg/kg·bw

Row | Structure (SMILES) | t1/2β ([2]; healthy Beagle dogs) | MIC90 [3] | MIC90 [4] | MIC90 [5] | MIC90 [6] | MIC90 [7] | MIC90 [8] | MIC90 [9] | content in aqueous injection solution ([13]; 0 hr) | content in aqueous injection solution ([13]; 0.2 hr) | content in aqueous injection solution ([13]; 1 hr) | content in aqueous injection solution ([13]; 2 hr) | content in aqueous injection solution ([13]; 3 hr) | content in aqueous injection solution ([13]; 4 hr) | pH [14] | LD50 [17] | further results
1 | CC(C)N(C(=N)SCC(=O)NC1C(=O)N2C(C(=O)[O-])=C(CSc3nc(=O)c(=O)[nH]n3C)CSC12)C(C)C.[Na+] (stereo not drawn) [Compound Ia, 7-(α-((N,N-diisopropylamidino)thio)acetylamino)-3-(((1,2,5,6-tetrahydro-2-methyl-5,6-dioxo-1,2,4-triazin-3-yl)thio)methyl) cephalosporanic acid mono sodium salt] | 2.59 ± 0.04 h | 0.5 mg/L | 1 mg/L | 0.0625 mg/L | 0.5 mg/L | 0.125 mg/L | 4 mg/L | 8 mg/L | 98.60% | 98.60% | 97.98% | 97.79% | 97.24% | 97.13% | 7.3 | 1.7476 g/kg | muscle irritation observed [1]: slight irritation; AUC [2, 18]: 108.29 ± 18.17 mg·h/L; CIB [2, 18]: 047 ± 0.09 L/kg/h; V1 [2, 18]: 0.25 ± 0.07 L/kg; VB [2, 18]: 1.61 ± 0.30 L/kg; t1/2α [2, 18]: 37.8 ± 7.2 min; Cmax ([2]; healthy Beagle dogs, single intravenous administration 50 mg/kg·bw, plasma): 116.35 ± 12.06 µg/mL; drug concentration after 12 hours of the administration ([2]; healthy Beagle dogs, single intravenous administration 50 mg/kg·bw, plasma, 12 hours): 0.39 ± 0.09 µg/mL; protection for rats against Moraxella Catarrhalis [10]: excellent protection; solubility in acetone [11]: not readily soluble; solubility in anhydrous ethanol [11]: not readily soluble; solubility in methanol [11]: readily soluble; solubility in water [11]: readily soluble; protection for rats against Excrement Enterococcus [12]: excellent protection; pH value ([14]; concentration not given): 7.3; protection for rats against Pneumonia Chain Coccus [15]: excellent protection; content after 72 hours in storage ([16]; 10° C.): 96.9%; content after 72 hours in storage ([16]; 40° C.): 96.6%; content after 72 hours in storage ([16]; 60° C.): 96.4%; content after 72 hours in storage ([16]; −5° C.): 97.0%
2 | CC(C)N=C(NC(C)C)SCC(=O)NC1C(=O)N2C(C(=O)[O-])=C(CSc3nc(=O)c(=O)[nH]n3C)CSC12.CC(C)N=C(NC(C)C)SCC(=O)NC1C(=O)N2C(C(=O)[O-])=C(CSc3nc(=O)c(=O)[nH]n3C)CSC12.[Na+].[Na+] (stereo not drawn) [Compound Ib, disodium 7-(α-((N,N′-diisopropylamidino)thio)acetylamino)-3-(((1,2,5,6-tetrahydro-2-methyl-5,6-dioxo-1,2,4-triazin-3-yl)thio)methyl) cephalosporanate] | – | 0.5 mg/L | 0.5 mg/L | 0.0125 mg/L | 0.1 mg/L | 0.5 mg/L | 4 mg/L | 4 mg/L | 98.80% | 98.54% | 97.14% | 96.66% | 95.21% | 94.30% | 10.02 | – | –
3 | CC(C)N(C(=N)SCC(=O)NC1C(=O)N2C(C(=O)[O-])=C(CSc3nc(=O)c(=O)[nH]n3C)CSC12)C(C)C.[K+] (stereo not drawn) [Compound Ic, 7-(α-((N,N-diisopropylamidino)thio)acetylamino)-3-(((1,2,5,6-tetrahydro-2-methyl-5,6-dioxo-1,2,4-triazin-3-yl)thio)methyl) cephalosporanic acid monopotassium salt] | – | 0.5 mg/L | 0.5 mg/L | 0.0156 mg/L | 0.1 mg/L | 0.5 mg/L | 4 mg/L | 8 mg/L | – | – | – | – | – | – | – | – | –
4 | CC(=O)OCC1=C(C(=O)O)N2C(=O)[C@@H](NC(=O)CSC(=NC(C)C)NC(C)C)[C@H]2SC1 [cefathiamidine, reference compound] | 0.65 ± 0.03 h | – | – | – | – | – | – | – | – | – | – | – | – | – | – | 0.8242 g/kg | biological half-life in blood ([2]; Beagle dogs, preliminary pharmacokinetic study): 0.65 hours
